Assay results: ChEMBL document CHEMBL3044527, “Involvement of melanin synthesis and reactive oxygen species in phytotoxic action of l-DOPA in carrot cells” (2007)
The source made the active and inactive calls. The calls are words filed in the database; no cut-off is given here.

Columns and labels:
Format in all cases: functional
Daucus carota [1] = experiment: Phytotoxicity against Daucus carota (carrot) cells grown in culture assessed as melanin per packed cell volume at 1 mM after 6 days by spectrophotometric analysis in presence of alpha-tocopherol (reference value: 27.2 ug per packed cell volume)
Daucus carota [2] = experiment: Phytotoxicity against Daucus carota (carrot) cells grown in culture assessed as melanin per packed cell volume at 1 mM after 4 days by spectrophotometric analysis in presence of alpha-tocopherol (reference value: 21.3 ug per packed cell volume)
Daucus carota [3] = experiment: Phytotoxicity against Daucus carota (carrot) cells grown in culture assessed as melanin per packed cell volume at 1 mM after 2 days by spectrophotometric analysis in presence of alpha-tocopherol (reference value: 23.7 ug per packed cell volume)
Daucus carota [4] = experiment: Phytotoxicity against Daucus carota (carrot) cells grown in culture assessed as melanin per packed cell volume at 1 mM after 6 days by spectrophotometric analysis in presence of ascorbic acid (reference value: 27.2 ug per packed cell volume)
Daucus carota [5] = experiment: Phytotoxicity against Daucus carota (carrot) cells grown in culture assessed as melanin per packed cell volume at 1 mM after 4 days by spectrophotometric analysis in presence of ascorbic acid (reference value: 21.3 ug per packed cell volume)
Daucus carota [6] = experiment: Phytotoxicity against Daucus carota (carrot) cells grown in culture assessed as melanin per packed cell volume at 1 mM after 2 days by spectrophotometric analysis in presence of ascorbic acid (reference value: 23.7 ug per packed cell volume)
Daucus carota [7] = experiment: Phytotoxicity against Daucus carota (carrot) cells grown in culture assessed as melanin per packed cell volume at 1 mM after 6 days by spectrophotometric analysis (reference value: 27.2 ug per packed cell volume)
Daucus carota [8] = experiment: Phytotoxicity against Daucus carota (carrot) cells grown in culture assessed as melanin per packed cell volume at 1 mM after 4 days by spectrophotometric analysis (reference value: 21.3 ug per packed cell volume)
Daucus carota [9] = experiment: Phytotoxicity against Daucus carota (carrot) cells grown in culture assessed as melanin per packed cell volume at 1 mM after 2 days by spectrophotometric analysis (reference value: 23.7 ug per packed cell volume)
Daucus carota [10] = experiment: Phytotoxicity against Daucus carota (carrot) cells grown in culture assessed as melanin per packed cell volume at 0.1 mM after 6 days by spectrophotometric analysis (reference value: 27.2 ug per packed cell volume)
Daucus carota [11] = experiment: Phytotoxicity against Daucus carota (carrot) cells grown in culture assessed as melanin per packed cell volume at 0.1 mM after 4 days by spectrophotometric analysis (reference value: 21.3 ug per packed cell volume)
Daucus carota [12] = experiment: Phytotoxicity against Daucus carota (carrot) cells grown in culture assessed as melanin per packed cell volume at 0.1 mM after 2 days by spectrophotometric analysis (reference value: 23.7 ug per packed cell volume)
Daucus carota [13] = experiment: Phytotoxicity against Daucus carota (carrot) cells grown in culture assessed as growth inhibition at 1 mM after 2 to 6 days in presence of SOD relative to control
Daucus carota [14] = experiment: Phytotoxicity against Daucus carota (carrot) cells grown in culture assessed as growth inhibition at 1 mM after 2 to 6 days in presence of catalase relative to control
Daucus carota [15] = experiment: Phytotoxicity against Daucus carota (carrot) cells grown in culture assessed as growth inhibition at 1 mM after 2 to 6 days in presence of alpha-tocopherol relative to control
Daucus carota [16] = experiment: Phytotoxicity against Daucus carota (carrot) cells grown in culture assessed as growth inhibition at 1 mM after 6 days in presence of ascorbic acid relative to control
Daucus carota [17] = experiment: Phytotoxicity against Daucus carota (carrot) cells grown in culture assessed as growth inhibition at 1 mM after 4 days in presence of ascorbic acid relative to control
Daucus carota [18] = experiment: Phytotoxicity against Daucus carota (carrot) cells grown in culture assessed as growth inhibition at 1 mM after 2 days in presence of ascorbic acid relative to control
Daucus carota [19] = experiment: Phytotoxicity against Daucus carota (carrot) cells grown in culture assessed as lipid peroxidation at 1 mM after 2 days by TBARS method in presence of alpha-tocopherol relative to control
Daucus carota [20] = experiment: Phytotoxicity against Daucus carota (carrot) cells grown in culture assessed as lipid peroxidation at 1 mM after 2 days by TBARS method in presence of ascorbic acid relative to control
Daucus carota [21] = experiment: Phytotoxicity against Daucus carota (carrot) cells grown in culture assessed as lipid peroxidation at 1 mM after 4 to 6 days by TBARS method relative to control
Daucus carota [22] = experiment: Phytotoxicity against Daucus carota (carrot) cells grown in culture assessed as lipid peroxidation at 1 mM after 2 days by TBARS method relative to control
Daucus carota [23] = experiment: Phytotoxicity against Daucus carota (carrot) cells grown in culture assessed as increase in ROS level at 1 mM after 24 hr by MPEC-based chemiluminescence assay in presence of SOD relative to control
Daucus carota [24] = experiment: Phytotoxicity against Daucus carota (carrot) cells grown in culture assessed as increase in ROS level at 1 mM after 24 hr by MPEC-based chemiluminescence assay in presence of catalase relative to control
Daucus carota [25] = experiment: Phytotoxicity against Daucus carota (carrot) cells grown in culture assessed as increase in ROS level at 1 mM after 24 hr by MPEC-based chemiluminescence assay in presence of ascorbic acid relative to control
Daucus carota [26] = experiment: Phytotoxicity against Daucus carota (carrot) cells grown in culture assessed as increase in ROS level after 24 hr by MPEC-based chemiluminescence assay relative to control
Daucus carota [27] = experiment: Phytotoxicity against Daucus carota (carrot) cells grown in culture assessed as growth inhibition at 1 mM after 8 days relative to control; details: 192 h, values are per cent of control
Daucus carota [28] = experiment: Phytotoxicity against Daucus carota (carrot) cells grown in culture assessed as growth inhibition at 1 mM after 6 days relative to control; details: 144 h, values are per cent of control
Daucus carota [29] = experiment: Phytotoxicity against Daucus carota (carrot) cells grown in culture assessed as growth inhibition at 1 mM after 2 days relative to control; details: 48 h, values are per cent of control
Daucus carota [30] = experiment: Phytotoxicity against Daucus carota (carrot) cells grown in culture assessed as growth inhibition at 1 mM after 4 days relative to control; details: 96 h, values are per cent of control
Daucus carota [31] = experiment: Phytotoxicity against Daucus carota (carrot) cells grown in culture assessed as growth inhibition at 0.1 mM after 8 days relative to control; details: 192 h, values are per cent of control
Daucus carota [32] = experiment: Phytotoxicity against Daucus carota (carrot) cells grown in culture assessed as growth inhibition at 0.1 mM after 4 days relative to control; details: 96 h, values are per cent of control
Daucus carota [33] = experiment: Phytotoxicity against Daucus carota (carrot) cells grown in culture assessed as growth inhibition at 0.1 mM after 6 days relative to control; details: 144 h, values are per cent of control
Daucus carota [34] = experiment: Phytotoxicity against Daucus carota (carrot) cells grown in culture assessed as growth inhibition at 0.1 mM after 2 days relative to control; details: 48 h, values are per cent of control

SMILES: N[C@@H](Cc1ccc(O)c(O)c1)C(=O)O [LEVODOPA]
- Activity (Daucus carota [1]): 28.1 µg
- Activity (Daucus carota [2]): 27.4 µg
- Activity (Daucus carota [3]): 27.9 µg
- Activity (Daucus carota [4]): 28.2 µg
- Activity (Daucus carota [5]): 22.9 µg
- Activity (Daucus carota [6]): 17.9 µg
- Activity (Daucus carota [7]): 66.1 µg
- Activity (Daucus carota [8]): 42.8 µg
- Activity (Daucus carota [9]): 28.4 µg
- Activity (Daucus carota [10]): 32.2 µg
- Activity (Daucus carota [11]): 31.7 µg
- Activity (Daucus carota [12]): 26.8 µg
- Activity (Daucus carota [13]): Active
- Activity (Daucus carota [14]): Active
- Activity (Daucus carota [15]): inactive
- Activity (Daucus carota [16]): inactive
- Activity (Daucus carota [17]): inactive
- Activity (Daucus carota [18]): inactive
- Activity (Daucus carota [19]): inactive
- Activity (Daucus carota [20]): inactive
- Activity (Daucus carota [21]): inactive
- Activity (Daucus carota [22]): Active
- Activity (Daucus carota [23]): Active
- Activity (Daucus carota [24]): Active
- Activity (Daucus carota [25]): inactive
- Activity (Daucus carota [26]): Active
- growth, % of control at 1000 µM (Daucus carota [27]): 64.9%
- growth, % of control at 1000 µM (Daucus carota [28]): 60.9%
- growth, % of control at 1000 µM (Daucus carota [29]): 62%
- growth, % of control at 1000 µM (Daucus carota [30]): 59.6%
- growth, % of control at 100 µM (Daucus carota [31]): 83.7%
- growth, % of control at 100 µM (Daucus carota [32]): 88.2%
- growth, % of control at 100 µM (Daucus carota [33]): 80.9%
- growth, % of control at 100 µM (Daucus carota [34]): 84.7%
